Reference: PMC10940605, “Design, synthesis and in vitro anticancer activity of some new lomefloxacin derivatives” (Scientific Reports, 2024)

What was measured:
Assay in all cases: NCI-60 SRB screen
Assay type in all cases: cell-based
786-0 = settings: Homo sapiens; 786-0, 10^–5 Molar; read-out: Percent growth inhibition
Procedure, shortened: (§1)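 Compound added at 10^−5 M final, 48 h at 37 °C. Fixed with cold TCA, stained with 0.4% SRB, read at […].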

A498 = settings: Homo sapiens; A498, 10^–5 Molar; read-out: Percent growth inhibition
Procedure, shortened: as §1

BT-549 = settings: Homo sapiens; BT-549, 10^–5 Molar; read-out: Percent growth inhibition
Procedure, shortened: (§2)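 Single-dose screen at 10^−5 M; cells grown in RPMI 1640 with 2 mM L-glutamine and FBS for 24 h, then exposed to compound for 48 h at 37 °C, 5% CO2. TCA-fixed, SRB-stained, absorbance read at […]; percentage growth inhibition calculated against time-zero and control wells.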

EKVX = settings: Homo sapiens, 10^–5 Molar, read-out: Percent growth inhibition
Procedure, shortened: as §2

HCT-116 = settings: Homo sapiens; HCT-116, 10^–5 Molar; read-out: Percent growth inhibition
Procedure, shortened: as §2

HS 578T = settings: Homo sapiens, 10^–5 Molar, read-out: Percent growth inhibition
Procedure, shortened: as §2

LOX IMVI = settings: Homo sapiens, 10^–5 Molar, read-out: Percent growth inhibition
Procedure, shortened: as §1

MDA-MB-468 = settings: Homo sapiens; MDA-MB-468, 10^–5 Molar; read-out: Percent growth inhibition
Procedure, shortened: as §2

NCI-H322M = settings: Homo sapiens, 10^–5 Molar, read-out: Percent growth inhibition
Procedure, shortened: as §2

NCI-H460 = settings: Homo sapiens; NCI-H460, 10^–5 Molar; read-out: Percent growth inhibition
Procedure, shortened: as §2

NCI-H522 = settings: Homo sapiens; NCI-H522, 10^–5 Molar; read-out: Percent growth inhibition
Procedure, shortened: as §2

NCI/ADR-RES = settings: Homo sapiens, 10^–5 Molar, read-out: Percent growth inhibition
Procedure, shortened: as §1

OVCAR-4 = settings: Homo sapiens; OVCAR-4, 10^–5 Molar; read-out: Percent growth inhibition
Procedure, shortened: as §2

OVCAR-5 = settings: Homo sapiens; OVCAR-5, 10^–5 Molar; read-out: Percent growth inhibition
Procedure, shortened: as §1

RXF 393 = settings: Homo sapiens, 48 h; RXF 393, 10^–5 Molar; read-out: Percent growth inhibition
Procedure, shortened: as §2

SF-268 = settings: Homo sapiens; SF-268, 10^–5 Molar; read-out: Percent growth inhibition
Procedure, shortened: as §1

SK-MEL-28 = settings: Homo sapiens; SK-MEL-28, 10^–5 Molar; read-out: Percent growth inhibition
Procedure, shortened: as §2

SN12C = settings: Homo sapiens, 10^–5 Molar, read-out: Percent growth inhibition
Procedure, shortened: as §1

T-47D = settings: Homo sapiens, T47D, 10^–5 Molar, read-out: Percent growth inhibition
Procedure, shortened: as §1

U251 = settings: Homo sapiens, U-251; U251, 10^–5 Molar; read-out: Percent growth inhibition
Procedure, shortened: as §2

UO-31 = settings: Homo sapiens; UO-31, 10^–5 Molar; read-out: Percent growth inhibition
Procedure, shortened: as §2

leukemia SR = settings: Homo sapiens; for inhibition at 10 µM: SR, 10^–5 Molar, read-out: Percent growth inhibition
Procedure, shortened: as §2

melanoma SK-MEL-5 = settings: Homo sapiens; SK-MEL-5, 10^–5 Molar; read-out: Percent growth inhibition
Procedure, shortened: as §1

UACC-62 = settings: Homo sapiens; UACC-62, 10^–5 Molar; read-out: Percent growth inhibition
Procedure, shortened: as §1

Row | Structure (SMILES) | inhibition at 10 µM (786-0) | inhibition at 10 µM (A498) | inhibition at 10 µM (BT-549) | inhibition at 10 µM (EKVX) | inhibition at 10 µM (HCT-116) | inhibition at 10 µM (HS 578T) | inhibition at 10 µM (LOX IMVI) | inhibition at 10 µM (MDA-MB-468) | inhibition at 10 µM (NCI-H322M) | inhibition at 10 µM (NCI-H460) | inhibition at 10 µM (NCI-H522) | inhibition at 10 µM (NCI/ADR-RES) | inhibition at 10 µM (OVCAR-4) | inhibition at 10 µM (OVCAR-5) | inhibition at 10 µM (RXF 393) | inhibition at 10 µM (SF-268) | inhibition at 10 µM (SK-MEL-28) | inhibition at 10 µM (T-47D) | inhibition at 10 µM (UO-31) | inhibition at 10 µM (melanoma SK-MEL-5) | also measured
1 | CCn1cc(C(=O)NN=Cc2ccc(Br)cc2)c(=O)c2cc(F)c(N3CCNC(C)C3)c(F)c21 (stereo not shown) [Compound 3c, N'-(4-Bromobenzylidene)-1-ethyl-6,8-difluoro-7-(3-methylpiperazin-1-yl)-4-oxo-1,4-dihydroquinoline-3-carbohydrazide] | 36.1% | 1.99% | 8.32% | 13.1% | 32.3% | 26.9% | 178% | 17.5% | 14.2% | 151% | 21.5% | 16.7% | 18.3% | 5.97% | 38.8% | 37.4% | 8.78% | 36% | 31.6% | 17.6% | inhibition at 10 µM (SN12C): 47.8%; inhibition at 10 µM (U251): 98.6%; inhibition at 10 µM (leukemia SR): 95.7%
2 | CCn1cc(C(=O)NN=Cc2cccs2)c(=O)c2cc(F)c(N3CCNC(C)C3)c(F)c21 (stereo not shown) [Compound 3e, 1-Ethyl-6,8-difluoro-7-(3-methylpiperazin-1-yl)-4-oxo-N'-(thiophen-2-ylmethylene)-1,4-dihydroquinoline-3-carbohydrazide] | 32.2% | – | 38.4% | 65.9% | 5.52% | 13.9% | 184% | 44.9% | 15.9% | 76.4% | 28.9% | 32.1% | 23.8% | 32.8% | 83.8% | 20.9% | 10.1% | 22.2% | 33.2% | 30.2% | inhibition at 10 µM (SN12C): 30%; inhibition at 10 µM (U251): 46.7%; inhibition at 10 µM (UACC-62): 3.47%; IC50 (leukemia SR; Leukemia SR cells, concentration used for cell cycle and apoptosis tests): 1.9 µM; inhibition at 10 µM (leukemia SR): 104%
3 | CCn1cc(C(=O)O)c(=O)c2cc(F)c(N3CCN(CC(=O)Nc4ccccc4)C(C)C3)c(F)c21 (stereo not shown) [Compound 5a, 1-Ethyl-6,8-difluoro-7-(3-methyl-4-(2-oxo-2-(phenylamino)ethyl)piperazin-1-yl)-4-oxo-1,4-dihydroquinoline-3-carboxylic acid] | 7.47% | 26.6% | – | – | 0.13% | 8.88% | 11.5% | 7.38% | 14.3% | 0.79% | 7.5% | 3.34% | 17.6% | 1.71% | – | 6.33% | 3% | 4.6% | 23.5% | 0.76% | inhibition at 10 µM (UACC-62): 21.8%
4 | CCn1cc(C(=O)O)c(=O)c2cc(F)c(N3CCN(CC(=O)Nc4ccc(Cl)cc4)C(C)C3)c(F)c21 (stereo not shown) [Compound 5b, 7-(4-(2-((4-Chlorophenyl)amino)-2-oxoethyl)-3-methylpiperazin-1-yl)-1-ethyl-6,8-difluoro-4-oxo-1,4-dihydroquinoline-3-carboxylic acid] | – | 27.1% | 0.23% | 3.04% | 0.67% | 11.2% | 9.13% | 7.4% | 13.8% | 9.4% | 8.89% | 8.06% | 22.2% | – | 0.61% | 6.49% | 6.48% | 11.2% | 31.4% | 16.1% | inhibition at 10 µM (SN12C): 2.23%; inhibition at 10 µM (UACC-62): 40.8%
